Read-outs that look alike come from different tables or passages of the source.
Experiments:
HUH-7 = experiment: [3H]Thymidine incorporation assay, HUH-7; assay type: cell-based; conditions: Homo sapiens, 5 days, read-out: % inhibition of [3H] thymidine incorporation (compared to control)
Description: (§1) Method: [^3H]Thymidine incorporation assay was employed to study the effect of clofazimine on cell proliferation. Here, adherent cells (5/000-10/000) were plated into 24-well Corning tissue culture dishes and exposed to culture medium (MEM 5% FBS) containing the vehicle or different concentrations of clofazimine (10^-9 to 10^-5 moles per liter). For Novikoff which is a detached rat cell line, 2000 cells were suspended in 2 ml of DMEM (5%FBS) and kept under the same condition as for attached cells. Media were replaced with fresh media on alternate days. […] The amount of radioactivity incorporated was determined using β-scintillation counter (18). Results are presented as the actual counts per minute against the concentration of the drug used in the culture media or as % inhibition (reduction in thymidine incorporation compared to controls). Treatment of different liver cancer cell lines, HUH-7, HepG2, SKHEP-1, Hep3-B (human cell lines) and Novikoff (rat cell line) with clofazimine led to dose-dependent inhibition of [3H]thymidine incorporation by these cells (Table 1 and FIG. 1). Values represent mean±s.e.m of % inhibition of [3H] thymidine incorporation (compared to control) for each cell line when treated for 5 days with different concentrations of clofazimine.

HepG2 = experiment: [3H]Thymidine incorporation assay, HepG2; assay type: cell-based; conditions: Homo sapiens, 5 days, read-out: % inhibition of [3H] thymidine incorporation (compared to control)
Description: as §1

SKHEP-1 = experiment: [3H]Thymidine incorporation assay, SKHEP-1; assay type: cell-based; conditions: Homo sapiens, SK-HEP1, 5 days, read-out: % inhibition of [3H] thymidine incorporation (compared to control)
Description: as §1

Hep3-B = experiment: [3H]Thymidine incorporation assay, Hep3-B; assay type: cell-based; conditions: Homo sapiens, Hep3B, Hep3-β, 5 days, read-out: % inhibition of [3H] thymidine incorporation (compared to control)
Description: as §1

Novikoff = experiment: [3H]Thymidine incorporation assay, Novikoff; assay type: cell-based; conditions: Rattus norvegicus, 5 days, read-out: % inhibition of [3H] thymidine incorporation (compared to control)
Description: as §1

LOVO = experiment: [3H]thymidine incorporation, LOVO colorectal cancer cells; assay type: cell-based, human; conditions: 5 day treatment
Description: FIG. 8: [3H]thymidine incorporation expressed as counts per minute in LOVO cells (colorectal cancer cell line) treated in culture for 5 days with different concentrations of clofazimine.
Method: [^3H]Thymidine incorporation assay was employed to study the effect of clofazimine on cell proliferation. Here, adherent cells (5/000-10/000) were plated into 24-well Corning tissue culture dishes and exposed to culture medium (MEM 5% FBS) containing the vehicle or different concentrations of clofazimine (10^−9 to 10^−5 moles per liter). For Novikoff which is a detached rat cell line, 2000 cells were suspended in 2 ml of DMEM (5%FBS) and kept under the same condition as for attached cells. Media were replaced with fresh media on alternate days. At the end of the treatment period (5-10 days), cell cultures were assayed for thymidine incorporation by the addition of 0.5 μCi of [3H]thymiydine to each well for the last 4 h of culture. The amount of radioactivity incorporated was determined using β-scintillation counter (18). Results are presented as the actual counts per minute against the concentration of the drug used in the culture media or as % inhibition (reduction in thymidine incorporation compared to controls). […]

HT-29 = experiment: [3H]thymidine incorporation, HT-29 colorectal cancer cells; assay type: cell-based; conditions: Homo sapiens, 120 h; HT-29, 1 μM clofazimine, 5 day treatment period; read-out: inhibition of cell proliferation
C-170 = experiment: [3H]thymidine incorporation, C-170 colorectal cancer cells; assay type: cell-based; conditions: Homo sapiens, C170, 120 h; C-170, 1 μM clofazimine, 5 day treatment period; read-out: inhibition of cell proliferation
Description: Method: [^3H]Thymidine incorporation assay was employed to study the effect of clofazimine on cell proliferation. Here, adherent cells (5/000-10/000) were plated into 24-well Corning tissue culture dishes and exposed to culture medium (MEM 5% FBS) containing the vehicle or different concentrations of clofazimine (10^−9 to 10^−5 moles per liter). For Novikoff which is a detached rat cell line, 2000 cells were suspended in 2 ml of DMEM (5%FBS) and kept under the same condition as for attached cells. Media were replaced with fresh media on alternate days. At the end of the treatment period (5-10 days), cell cultures were assayed for thymidine incorporation by the addition of 0.5 μCi of [3H]thymiydine to each well for the last 4 h of culture. The amount of radioactivity incorporated was determined using β-scintillation counter (18). Results are presented as the actual counts per minute against the concentration of the drug used in the culture media or as % inhibition (reduction in thymidine incorporation compared to controls). Treatment of different liver cancer cell lines, HUH-7, HepG2, SKHEP-1, Hep3-B (human cell lines) and Novikoff (rat cell line) with clofazimine led to dose-dependent inhibition of [3H]thymidine incorporation by these cells (Table 1 and FIG. 1).

[1] = Solubility and stability in lipiodol; assay type: physicochemical
[2] = reference 9; cited from earlier work
HCC = HCC patients, cited from earlier work

SMILES: CC(C)/N=c1/cc2n(-c3ccc(Cl)cc3)c3ccccc3nc-2cc1Nc1ccc(Cl)cc1 [clofazimine, 3-(4-chloroanilino)-10-(4-chlorophenyl)-2, 10-dihydro-2-(isopropylimino)-phenazine]
- inhibition at 0.01 µM (HUH-7; HUH-7, clofazimine 0.01 μM): 0%
- inhibition at 0.1 µM (HUH-7; HUH-7, clofazimine 0.1 μM): 38.3 ± 7.2%
- inhibition at 0.5 µM (HUH-7; HUH-7, clofazimine 0.5 μM): 51.1 ± 3.4%
- inhibition at 1 µM (HUH-7; HUH-7, clofazimine 1.0 μM): 88.9 ± 1.1%
- inhibition at 5 µM (HUH-7; HUH-7, clofazimine 5.0 μM): 96.7 ± 0.9%
- inhibition at 0.01 µM (HepG2; HepG2, clofazimine 0.01 μM): 21 ± 1.9%
- inhibition at 0.1 µM (HepG2; HepG2, clofazimine 0.1 μM): 38.2 ± 2.2%
- inhibition at 0.5 µM (HepG2; HepG2, clofazimine 0.5 μM): 52.9 ± 4.7%
- inhibition at 1 µM (HepG2; HepG2, clofazimine 1.0 μM): 75.6 ± 2.7%
- inhibition at 5 µM (HepG2; HepG2, clofazimine 5.0 μM): 92.4 ± 1.9%
- inhibition at 0.01 µM (SKHEP-1; SKHEP-1, clofazimine 0.01 μM): 30.3 ± 2.9%
- inhibition at 0.1 µM (SKHEP-1; SKHEP-1, clofazimine 0.1 μM): 62.7 ± 7.1%
- inhibition at 0.5 µM (SKHEP-1; SKHEP-1, clofazimine 0.5 μM): 69 ± 3.2%
- inhibition at 1 µM (SKHEP-1; SKHEP-1, clofazimine 1.0 μM): 70.9 ± 2.1%
- inhibition at 5 µM (SKHEP-1; SKHEP-1, clofazimine 5.0 μM): 97.1 ± 1.7%
- inhibition at 0.01 µM (Hep3-B; clofazimine 0.01 μM): 28.4 ± 7.4%
- inhibition at 0.1 µM (Hep3-B; clofazimine 0.1 μM): 62.3 ± 3.1%
- inhibition at 0.5 µM (Hep3-B; clofazimine 0.5 μM): 91.6 ± 1.1%
- inhibition at 1 µM (Hep3-B; clofazimine 1.0 μM): 94.3 ± 0.07%
- inhibition at 5 µM (Hep3-B; clofazimine 5.0 μM): 95.4 ± 1.4%
- inhibition at 0.01 µM (Novikoff; clofazimine 0.01 μM): 0%
- inhibition at 0.1 µM (Novikoff; clofazimine 0.1 μM): 0%
- inhibition at 0.5 µM (Novikoff; clofazimine 0.5 μM): 11.7 ± 3.3%
- inhibition at 1 µM (Novikoff; clofazimine 1.0 μM): 18.9 ± 2.9%
- inhibition at 5 µM (Novikoff; clofazimine 5.0 μM): 42.7 ± 4.1%
- inhibition of proliferation as measured by [3H]thymidine incorporation (LOVO): profound inhibition of proliferation
- inhibition at 1 µM (HT-29): > 70%
- inhibition at 1 µM (C-170): > 70%
- solubility in lipiodol [1]: highly soluble
- stability in lipiodol [1]: stable
- log p (octanol/water) [2]: 7.4
- objective response (HCC; clofazimine alone, Falkson et al.): no objective response
- objective response (HCC; oral clofazimine, 3/30, Ruff et al.): 10%
- stabilization of the disease (HCC; oral clofazimine, 13/30, for up to 20 months, Ruff et al.): 43%

Reference: patent publication US20040067952A1, “Method and composition for treatment of cancer” (priority 2001, published 2004)
